According to paper PMC9054915 (Cancer Chemotherapy and Pharmacology, 2022):
Like-named read-outs stand apart in the source and are kept apart here.

Tests used:
[1] = MDCK permeability; conditions: dog, MDCK
Excerpt: (§1) The physiochemical and ADME parameters used for the development of the initial PBPK model are summarized Table S1. […] The volume of distribution at steady state (Vss) was obtained from the clinical absolute bioavailability study (ClinicalTrials.gov Identifier: NCT02390492). A tissue to plasma partition coefficient (Kp) scalar was applied to match the predicted Vss (predicted with in Simcyp using Method 3, Rodgers et al. + ion membrane permeability) to the observed value. The IV clearance determined in the clinical absolute bioavailability study was used (ClinicalTrials.gov Identifier: NCT02390492). […] The CYP3A4 inhibition parameters for competitive inhibition and TDI determined using in vitro assays (Data on file) were incorporated into the model.

[2] = Blood-to-plasma partition ratio and fraction unbound in plasma; type: in vitro ADME; conditions: mean at concentration from 0.1 to 40 µM, data on file, read-out: fu,plasma
[3] = male, human, in vivo, iv
[4] = target: T1, CYP3A4 (Homo sapiens, UniProt P08684)
Excerpt: as §1
(§2) The age range of 37–76 and the proportion of females of 0.69 were used in the simulation.

[5] = Physicochemical parameters (LogP, pKa, compound type; in-house data)
Excerpt: as §1

[6] = target: T1, CYP3A4; experiment: Clinical study: ipatasertib 300 mg QD with palbociclib (NCT04060862); conditions: in vivo
[7] = clinical; conditions: human, in vivo, po, 200 mg
[8] = target: T1, CYP3A4; conditions: ipatasertib 100 mg single oral dose with and without itraconazole 200 mg QD, cited from earlier work
[9] = cited from earlier work; for Observed AUC0-∞ / Observed AUC0-24: geometric mean (CV%); for Observed AUC0-24: Steady state
[10] = target: T1, CYP3A4; conditions: cited from earlier work
[11] = Human mass balance and absolute bioavailability study (NCT02390492)
[12] = Solubility of ipatasertib; type: physicochemical; conditions: across the pH range of 1.1–7.0
Excerpt: as §1

[13] = target: P-glycoprotein (P-gp) (Homo sapiens, UniProt P08183); experiment: In vitro P-glycoprotein substrate assessment; type: in vitro ADME
Excerpt: (§3) This is due to the difficulty in differentiating between the inhibition and induction from the clinical data and that the PBPK model parameters were optimized to represent a net inhibition effect.

[14] = tested on: MDCK (Madin-Darby Canine Kidney); experiment: MDCK permeability
Excerpt: as §1

[15] = cited from earlier work
[16] = Biliary excretion of unchanged ipatasertib; type: in vivo; conditions: rats and monkeys dosed with 10 mg/kg and 5 mg/kg
Excerpt: as §3

[17] = tested on: CYP3A4; experiment: In vitro CYP3A4 induction; type: in vitro ADME
Excerpt: as §3

[18] = tested on: CYP3A4; conditions: cited from earlier work
[19] = cited from earlier work; remark: listed apart in the source
[20] = tested on: Caco-2; parameters: method as in earlier work; conditions: enzalutamide PBPK model input; cited from earlier work
[21] = cited from earlier work; remark: listed apart in the source
[22] = palbociclib PBPK model input; cited from earlier work
[23] = target: T1, CYP3A4; experiment: clinical; conditions: female, in vivo, 125 mg
[24] = target: T1, CYP3A4; experiment: PBPK simulation: midazolam with ipatasertib 600 mg QD
Method: as §2
Therefore, sensitivity analyses of inhibitory parameters, where only one parameter (Ki or Kinact) varied at a time, were performed for all three models described above.

[25] = target: T1, CYP3A4; conditions: cited from earlier work; for AUC ratio Observation: midazolam AUC0–∞ with/without ipatasertib 600 mg QD; for AUC ratio Observation / Cmax ratio Observation: geometric mean ratio (90% CI); for Cmax ratio Observation: midazolam Cmax with/without ipatasertib 600 mg QD
[26] = enzalutamide 160 mg QD with ipatasertib, clinical observation, geometric mean (CV%)

T1 sequence (P08684 whole entry): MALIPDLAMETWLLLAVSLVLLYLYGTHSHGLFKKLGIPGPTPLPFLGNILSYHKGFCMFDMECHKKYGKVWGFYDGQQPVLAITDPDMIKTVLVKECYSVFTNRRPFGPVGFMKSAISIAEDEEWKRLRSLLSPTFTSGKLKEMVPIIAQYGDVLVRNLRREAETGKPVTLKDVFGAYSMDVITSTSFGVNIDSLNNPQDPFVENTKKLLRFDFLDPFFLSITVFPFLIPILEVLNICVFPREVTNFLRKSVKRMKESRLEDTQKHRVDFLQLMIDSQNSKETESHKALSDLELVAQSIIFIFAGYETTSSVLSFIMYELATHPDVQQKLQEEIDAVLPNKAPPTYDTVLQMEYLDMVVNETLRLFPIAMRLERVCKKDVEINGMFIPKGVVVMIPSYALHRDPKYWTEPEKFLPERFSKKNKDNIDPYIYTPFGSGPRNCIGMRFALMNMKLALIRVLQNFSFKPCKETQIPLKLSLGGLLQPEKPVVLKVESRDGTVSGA
P-glycoprotein (P-gp), sequence (P08183 whole entry): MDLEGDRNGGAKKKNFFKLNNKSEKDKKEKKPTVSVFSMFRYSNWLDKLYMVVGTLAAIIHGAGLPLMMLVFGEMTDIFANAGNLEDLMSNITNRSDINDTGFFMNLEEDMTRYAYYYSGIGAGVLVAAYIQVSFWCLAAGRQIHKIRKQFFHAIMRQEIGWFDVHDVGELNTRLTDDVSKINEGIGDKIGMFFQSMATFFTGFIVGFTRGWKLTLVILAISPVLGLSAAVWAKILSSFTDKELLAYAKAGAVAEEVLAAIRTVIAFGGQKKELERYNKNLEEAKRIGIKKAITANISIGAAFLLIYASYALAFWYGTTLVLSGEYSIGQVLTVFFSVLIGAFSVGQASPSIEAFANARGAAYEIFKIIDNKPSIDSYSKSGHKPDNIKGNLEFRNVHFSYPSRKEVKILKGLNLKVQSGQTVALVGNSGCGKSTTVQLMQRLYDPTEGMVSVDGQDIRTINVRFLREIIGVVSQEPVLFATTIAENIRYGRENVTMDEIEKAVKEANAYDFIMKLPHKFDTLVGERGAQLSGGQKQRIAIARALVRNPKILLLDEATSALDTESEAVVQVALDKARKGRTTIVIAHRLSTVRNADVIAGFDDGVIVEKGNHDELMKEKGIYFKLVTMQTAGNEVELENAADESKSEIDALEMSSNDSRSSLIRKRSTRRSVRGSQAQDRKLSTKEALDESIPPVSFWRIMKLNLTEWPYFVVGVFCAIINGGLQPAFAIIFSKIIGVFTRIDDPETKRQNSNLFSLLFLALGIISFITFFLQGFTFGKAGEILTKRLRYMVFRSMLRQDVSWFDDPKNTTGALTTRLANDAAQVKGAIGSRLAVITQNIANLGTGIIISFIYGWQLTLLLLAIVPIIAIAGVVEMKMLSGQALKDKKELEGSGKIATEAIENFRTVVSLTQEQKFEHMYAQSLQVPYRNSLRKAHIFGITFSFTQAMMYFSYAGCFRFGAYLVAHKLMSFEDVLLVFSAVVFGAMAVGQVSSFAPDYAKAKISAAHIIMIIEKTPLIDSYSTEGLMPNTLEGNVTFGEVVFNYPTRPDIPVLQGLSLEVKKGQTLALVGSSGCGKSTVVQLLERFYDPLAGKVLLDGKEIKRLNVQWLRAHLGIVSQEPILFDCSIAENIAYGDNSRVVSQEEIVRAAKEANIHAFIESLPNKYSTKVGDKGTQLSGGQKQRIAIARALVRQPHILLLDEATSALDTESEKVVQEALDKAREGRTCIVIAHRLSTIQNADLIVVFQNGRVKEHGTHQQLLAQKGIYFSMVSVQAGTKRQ

With CN/C(=N/CCSCc1nc[nH]c1C)NC#N [cimetidine] as the compound, how does the Papp [1] read?
Its Papp is 1 ×10⁻⁶ cm/s.

For CC(C)NC[C@@H](C(=O)N1CCN(c2ncnc3c2[C@H](C)C[C@H]3O)CC1)c1ccc(Cl)cc1 [Ipatasertib], which fraction unbound [2] is on record?
The fraction unbound was 0.63.

And the CLiv [3]?
The CLiv was 100 L/h.

What about the CYP3A4 substrate/inhibitor status [4] of the same compound?
The CYP3A4 substrate/inhibitor status was “a substrate and a competitive and time-dependent inhibitor (TDI) of CYP3A4”.

And the “Kapp (CYP3A4 time-dependent inhibition)” value [4]?
The value was 9.66 µM.

And the Compound type [5]?
Its Compound type is “Diprotic base”.

What about the logP [5] of the same compound?
Its logP is 3.

What about the pKa ([5]; read-out: pKa1) of the same compound?
Its pKa is 9.

And the pKa ([5]; read-out: pKa2)?
Its pKa is 4.9.

And the AUC [6]?
The AUC was 2510 ng·h/mL.

And the Cmax [6]?
Its Cmax is 314 ng/mL.

And the Tmax [6]?
The Tmax was 1.5 h.

And the CL renal [7]?
The CL renal was 322 mL/min.

And the “AUC Observation” value ([8]; ipatasertib AUC0–∞, geometric mean (CV%))?
The value was 327 (26.4%) ng* h/ml.

What about the “Cmax Observation” value ([8]; ipatasertib Cmax, geometric mean (CV%)) of the same compound?
Its value is 44.9 (35.9%) ng/ml.

What about the “Tmax Observation” value ([8]; ipatasertib Tmax, median (range)) of the same compound?
Its value is 1.07 (0.50–3.03) h.

And the “dose proportionality of exposure” value ([9]; 200 to 800 mg, single dose or multiple doses)?
The value was “approximately dose-proportional”.

What about the “Observed AUC0-∞” value ([9]; Day 1, 25 mg oral (n=3)) of the same compound?
The value was 34.0 (107%) ng*hr/ml.

What about the “Observed AUC0-∞” value ([9]; Day 1, 50 mg oral (n=3)) of the same compound?
The value was 84.6 (50.1%) ng*hr/ml.

What about the “Observed AUC0-∞” value ([9]; Day 1, 100 mg oral (n=3)) of the same compound?
The value was 365 (21.5%) ng*hr/ml.

What about the “Observed AUC0-∞” value ([9]; Day 1, 200 mg oral (n=3)) of the same compound?
The value was 999 (21.2%) ng*hr/ml.

What about the “Observed AUC0-∞” value ([9]; Day 1, 400 mg oral (n=3)) of the same compound?
The value was 2230 (14.1%) ng*hr/ml.

And the “Observed AUC0-∞” value ([9]; Day 1, 600 mg oral (n=7))?
The value was 3460 (36.4%) ng*hr/ml.

And the “Observed AUC0-∞” value ([9]; Day 1, 800 mg oral (n=7))?
Its value is 4100 (68.6%) ng*hr/ml.

What about the “Observed AUC0-24” value ([9]; 25 mg (n=3)) of the same compound?
The value was 88.3 (77.8%) ng*hr/ml.

And the “Observed AUC0-24” value ([9]; 50 mg (n=3))?
The value was 171 (11%) ng*hr/ml.

And the “Observed AUC0-24” value ([9]; 200 mg (n=3))?
The value was 1770 (14.6%) ng*hr/ml.

What about the “Observed AUC0-24” value ([9]; 400 mg (n=3)) of the same compound?
Its value is 3210 (22.3%) ng*hr/ml.

And the “Observed AUC0-24” value ([9]; 600 mg (n=7))?
The value was 4450 (43.8%) ng*hr/ml.

What about the “Observed AUC0-24” value ([9]; 800 mg (n=7)) of the same compound?
The value was 6670 (66.1%) ng*hr/ml.

What about the “dose proportionality of exposure” value ([9]; low doses of 25–50 mg) of the same compound?
The value was “more than dose-proportional increase in exposures”.

What about the “observed decrease in ipatasertib Cmax” value ([10]; in the presence of enzalutamide, patients with prostate cancer) of the same compound?
Its value is about 53%.

What about the “AUC Observation” value ([10]; ipatasertib AUC0–24 h, ipatasertib 400 mg QD with and without enzalutamide 160 mg QD, geometric mean (CV%)) of the same compound?
Its value is 2170 (53.8%) ng* h/ml.

And the “Cmax Observation” value ([10]; ipatasertib Cmax, ipatasertib 400 mg QD with and without enzalutamide 160 mg QD, patients with prostate cancer, geometric mean (CV%))?
Its value is 284 (66.5%) ng/ml.

And the “Tmax Observation” value ([10]; ipatasertib Tmax, ipatasertib 400 mg QD with and without enzalutamide 160 mg QD, median (range))?
Its value is 1.85 (0.63–4.00) h.

What about the Vd ([11]; human, in vivo, intravenous, 0.08 mg) of the same compound?
Its Vd is 39.1 L/kg.

And the bioavailability ([11]; human, in vivo, oral, 200 mg)?
Its bioavailability is 34%.

What about the “unchanged drug eliminated in urine” value ([11]; single 200 mg oral dose) of the same compound?
The value was about 8%.

What about the solubility [12] of the same compound?
The solubility was over 10000 µg/mL.

What about the P-gp substrate status [13] of the same compound?
The P-gp substrate status was “substrate of P-glycoprotein (P-gp)”.

And the Papp [1]?
The Papp was 3.55 ×10⁻⁶ cm/s.

And the “permeability (in words)” value [14]?
Its value is “moderate permeability”.

What about the “effect of food on exposures” value [15] of the same compound?
Its value is “Food does not affect exposures”.

What about the “unchanged drug found in bile” value [16] of the same compound?
Its value is 2.9–5.8%.

And the “CYP3A4 induction in vitro” value [17]?
The value was “weak CYP3A4 inducer in vitro”.

For COCCc1ccc(OCC(O)CNC(C)C)cc1 (stereo not drawn) [metoprolol], which Papp [1] is on record?
The Papp was 24.8 ×10⁻⁶ cm/s.

With CNC(=O)c1ccc(N2C(=S)N(c3ccc(C#N)c(C(F)(F)F)c3)C(=O)C2(C)C)cc1F [Enzalutamide] as the compound, how does the “Ind max (CYP3A4 induction)” value ([18]; enzalutamide PBPK model input) read?
Its value is 8.

What about the EC50 ([18]; enzalutamide PBPK model input, read-out: Ind C50 (CYP3A4 induction)) of the same compound?
The EC50 was 2.5 µM.

What about the Ki ([18]; enzalutamide PBPK model input, read-out: Ki (CYP3A4 competitive inhibition)) of the same compound?
The Ki was 42 µM.

What about the CLpo ([19]; enzalutamide, in vivo clearance) of the same compound?
The CLpo was 0.54 L/h.

And the “Observed AUCss” value [10, 26]?
The value was 341 (25%) µg*hr/ml.

What about the “Observed Cmax” value [10, 26] of the same compound?
Its value is 17 (22%) µg/ml.

And the Caco-2 permeability [20]?
Its Caco-2 permeability is 31 10^-6 cm/s.

What about the “fu, plasma” value ([21]; enzalutamide PBPK model input) of the same compound?
Its value is 0.024.

For CC(C)NCC(O)COc1cccc2ccccc12 (stereo not drawn) [propranolol], which Papp [1] is on record?
Its Papp is 20.9 ×10⁻⁶ cm/s.

Which “Kapp (CYP3A4 time-dependent inhibition)” value ([18]; palbociclib PBPK model input) does the source give for CC(=O)c1c(C)c2cnc(Nc3ccc(N4CCNCC4)cn3)nc2n(C2CCCC2)c1=O [Palbociclib] here?
Its value is 10 µM.

And the logP [22]?
The logP was 0.99.

And the CLR ([19]; palbociclib PBPK model input)?
Its CLR is 6.6 L/h.

What about the Fa ([19]; palbociclib PBPK model input) of the same compound?
The Fa was 0.85.

What about the Ka ([19]; palbociclib PBPK model input) of the same compound?
The Ka was 0.12 h⁻¹.

And the Vss ([19]; palbociclib PBPK model input)?
Its Vss is 14.558 L/kg.

And the AUC [23]?
The AUC was 2560 ng·h/mL.

And the Cmax [23]?
The Cmax was 123 ng/mL.

And the “fu, plasma” value ([21]; palbociclib PBPK model input)?
The value was 0.147.

With Cc1ncc2n1-c1ccc(Cl)cc1C(c1ccccc1F)=NC2 [Midazolam] as the compound, how does the “AUC P/O” value ([24]; predicted/observed midazolam AUC0–∞, midazolam 2 mg with and without ipatasertib 600 mg QD) read?
Its value is 0.59.

What about the “AUC ratio P/O” value ([24]; predicted/observed midazolam AUC ratio, ipatasertib 600 mg QD) of the same compound?
Its value is 1.00.

What about the “Cmax ratio P/O” value ([24]; predicted/observed midazolam Cmax ratio, ipatasertib 600 mg QD) of the same compound?
Its value is 1.33.

And the “AUC ratio Observation” value [25]?
The value was 2.22 (1.57–3.12).

And the “AUC ratio Observation” value ([25]; listed as midazolam)?
The value was 2.22.

And the “AUC Observation” value ([25]; midazolam AUC0–∞, midazolam 2 mg single oral dose with and without ipatasertib 600 mg QD, geometric mean (CV%))?
Its value is 39.3 (58.4%) ng* h/ml.

What about the “Cmax ratio Observation” value [25] of the same compound?
Its value is 1.29 (0.97–1.71).

And the “Cmax ratio Observation” value ([25]; listed as midazolam)?
Its value is 1.29.

And the “Cmax Observation” value ([25]; midazolam Cmax, midazolam 2 mg single oral dose with and without ipatasertib 600 mg QD, geometric mean (CV%))?
Its value is 15.0 (51.6%) ng/ml.

What about the “Tmax Observation” value ([25]; midazolam Tmax, midazolam 2 mg single oral dose with and without ipatasertib 600 mg QD, median (range)) of the same compound?
Its value is 0.50 (0.50–1.00) h.

What about the Papp [1] of the same compound?
Its Papp is 18.8 ×10⁻⁶ cm/s.
